According to paper PMC10812665, “Definition of the Neurotoxicity-Associated Metabolic Signature Triggered by Berberine and Other Respiratory Chain Inhibitors” (Antioxidants, 2023):

Biological target: T1, purified pig brain tubulin (Sus scrofa, UniProt P02550+P02554)
T1 construct: native alpha/beta-tubulin purified from pig brain
Assay: tubulin polymerization, absorbance […] nm
Assay type: biochemical

T1 sequence (P02554 whole entry): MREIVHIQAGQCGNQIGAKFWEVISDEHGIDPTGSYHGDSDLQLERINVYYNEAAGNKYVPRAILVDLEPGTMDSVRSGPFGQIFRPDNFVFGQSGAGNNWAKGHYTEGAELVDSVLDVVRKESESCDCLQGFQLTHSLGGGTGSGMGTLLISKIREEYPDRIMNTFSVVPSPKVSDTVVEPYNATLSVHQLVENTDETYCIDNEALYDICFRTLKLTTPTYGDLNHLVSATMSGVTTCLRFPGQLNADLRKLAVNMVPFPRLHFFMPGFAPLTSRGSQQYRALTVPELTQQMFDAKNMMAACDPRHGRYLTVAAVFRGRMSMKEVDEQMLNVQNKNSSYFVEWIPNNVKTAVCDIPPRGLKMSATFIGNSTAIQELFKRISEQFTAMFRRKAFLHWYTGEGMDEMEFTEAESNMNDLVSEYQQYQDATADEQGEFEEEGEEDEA
T1 sequence (P02550 whole entry): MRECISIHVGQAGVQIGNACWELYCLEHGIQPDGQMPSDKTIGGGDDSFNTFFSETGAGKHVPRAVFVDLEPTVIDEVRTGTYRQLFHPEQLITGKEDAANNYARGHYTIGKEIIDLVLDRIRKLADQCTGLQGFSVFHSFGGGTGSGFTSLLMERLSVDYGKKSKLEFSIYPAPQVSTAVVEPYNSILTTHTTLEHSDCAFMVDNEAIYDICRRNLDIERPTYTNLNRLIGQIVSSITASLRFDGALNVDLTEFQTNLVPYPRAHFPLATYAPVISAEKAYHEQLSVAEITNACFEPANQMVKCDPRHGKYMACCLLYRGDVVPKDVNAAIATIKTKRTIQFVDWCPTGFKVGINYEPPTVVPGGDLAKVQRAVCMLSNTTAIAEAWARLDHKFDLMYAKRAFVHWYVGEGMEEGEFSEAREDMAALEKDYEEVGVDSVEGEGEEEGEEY

C=C(C)[C@H]1Cc2c(ccc3c2O[C@@H]2COc4cc(OC)c(OC)cc4[C@@H]2C3=O)O1 [Rot, rotenone]
EC50: 640 nM
